Reference: ChEMBL document CHEMBL1147258, “Cytochalasins Z4, Z5, and Z6, three new 24-Oxa[14]cytochalasans produced by Phoma exigua var. heteromorpha” (J Nat Prod, 2003)
Activity calls are given as the source filed them. The rule behind the calls is not given here.

Experiments:
Artemia = assay: (§1) Toxicity in brine shrimp assessed as mortality of larvae at 100 uM; assay type: organism-based; details: in vivo, 100 µM
Solanum lycopersicum = assay: Herbicidal activity against tomato seedlings assessed as inhibition of rootlet elongation at 100 uM; assay type: functional
[1] = as §1; assay type: organism-based; details: artemia, in vivo; read-out: Activity

Row | SMILES | Activity (Artemia) | Activity (Solanum lycopersicum) | mortality at 100 µM [1] [%] | inhibition at 100 µM (Solanum lycopersicum) [%]
1 | C=C1[C@@H](C)[C@H]2[C@H](Cc3ccccc3O)NC(=O)[C@]23OC(=O)/C=C/[C@H](O)CCC[C@@H](C)C/C=C/[C@H]3[C@@H]1O [CYTOCHALASIN Z4] | Non-toxic | inactive |  | 
2 | C=C1[C@@H](C)[C@H]2[C@H](Cc3ccc(O)cc3)NC(=O)[C@]23OC(=O)/C=C/[C@H](O)CCC[C@@H](C)C/C=C/[C@H]3[C@@H]1O [CYTOCHALASIN Z5] |  | inactive | 21 | 
3 | C[C@H]1C/C=C/[C@H]2[C@@H]3O[C@]3(C)[C@@H](C)[C@H]3[C@H](Cc4ccccc4)NC(=O)[C@]32OC(=O)/C=C/CC(O)CC1 (stereo partly specified) [CYTOCHALASIN Z6] | Non-toxic |  |  | 30
